Patent US20090018134A1, “Compounds - 945” (AstraZeneca AB, priority 2007, published 2009)
Where two headings read alike, the source gives them in different places.

Biological target: T1, mTOR (Homo sapiens, UniProt P42345)
T1 construct: FLAG; made in house
Experiment: In Vitro mTOR Kinase Assay (Echo), Test (a)(ii)
Assay type: biochemical
Outline: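 FLAG-tagged truncated mTOR (residues 1362-2549), expressed in HEK293 and purified via the FLAG tag, phosphorylated a biotinylated peptide over 2 hours at room temperature. EDTA stopped the reaction. Phospho-T389 was detected overnight by AlphaScreen using the p70 S6K T389 antibody with Protein A/streptavidin beads; IC50 reported.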

[1] = read-out: mTOR Kinase Assay (Echo)
[2] = table of enzyme assay Test (a)(ii), read-out: Test (a)(ii) IC50

T1 sequence (P42345 1362-2549): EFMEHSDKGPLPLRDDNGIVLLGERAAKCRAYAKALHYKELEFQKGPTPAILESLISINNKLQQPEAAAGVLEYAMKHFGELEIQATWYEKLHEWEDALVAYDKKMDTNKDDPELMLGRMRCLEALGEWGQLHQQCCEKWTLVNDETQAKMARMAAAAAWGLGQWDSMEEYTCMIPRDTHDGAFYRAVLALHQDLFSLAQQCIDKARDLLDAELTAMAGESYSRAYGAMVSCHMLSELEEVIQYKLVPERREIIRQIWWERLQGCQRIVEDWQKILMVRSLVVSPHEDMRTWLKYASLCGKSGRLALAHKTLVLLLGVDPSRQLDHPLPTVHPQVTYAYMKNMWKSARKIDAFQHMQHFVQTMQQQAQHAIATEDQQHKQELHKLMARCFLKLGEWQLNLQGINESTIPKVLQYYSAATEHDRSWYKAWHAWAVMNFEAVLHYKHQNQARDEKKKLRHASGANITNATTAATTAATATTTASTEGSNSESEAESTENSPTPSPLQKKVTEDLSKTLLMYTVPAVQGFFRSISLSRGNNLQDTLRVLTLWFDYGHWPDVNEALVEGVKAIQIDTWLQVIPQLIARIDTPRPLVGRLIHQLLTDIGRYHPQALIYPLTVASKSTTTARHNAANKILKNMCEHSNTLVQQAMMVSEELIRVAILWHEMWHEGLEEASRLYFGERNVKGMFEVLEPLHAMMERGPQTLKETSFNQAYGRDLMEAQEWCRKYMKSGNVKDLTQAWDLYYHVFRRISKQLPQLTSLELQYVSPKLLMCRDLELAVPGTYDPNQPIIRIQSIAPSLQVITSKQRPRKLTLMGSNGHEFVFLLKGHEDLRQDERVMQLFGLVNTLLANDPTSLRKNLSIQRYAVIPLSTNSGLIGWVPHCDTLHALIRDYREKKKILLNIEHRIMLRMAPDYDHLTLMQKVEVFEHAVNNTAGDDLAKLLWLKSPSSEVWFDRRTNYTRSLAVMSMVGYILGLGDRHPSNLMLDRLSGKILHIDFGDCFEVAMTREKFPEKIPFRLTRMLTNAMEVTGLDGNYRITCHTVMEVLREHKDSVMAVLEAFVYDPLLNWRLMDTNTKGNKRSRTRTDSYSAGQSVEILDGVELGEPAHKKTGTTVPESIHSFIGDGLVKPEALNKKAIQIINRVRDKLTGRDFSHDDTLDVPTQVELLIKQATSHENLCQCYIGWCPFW

## CC(C)S(=O)(=O)C1(c2cc(N3CCOC[C@@H]3C)nc(-c3ccc(NC(=O)NC4CCC4)cc3)n2)CC1 [Example 7c, 3-cyclobutyl-1-[4-[4-[(3S)-3-methylmorpholin-4-yl]-6-(1-propan-2-ylsulfonylcyclopropyl)pyrimidin-2-yl]phenyl]urea]
[1]
  IC50: 6.46 nM

## CC(C)S(=O)(=O)C1(c2cc(N3CCOC[C@@H]3C)nc(-c3ccc(NC(=O)NCCO)cc3)n2)CC1 [Example 7e, 3-(2-hydroxyethyl)-1-[4-[4-[(3S)-3-methylmorpholin-4-yl]-6-(1-propan-2-ylsulfonylcyclopropyl)pyrimidin-2-yl]phenyl]urea]
[1]
  IC50: 2.12 nM

## C[C@H]1COCCN1c1cc(C2(S(=O)(=O)C(C)(C)C)CC2)nc(-c2ccc(NC(=O)Nc3cnn(C)c3)cc2)n1 [Example 18m, 1-[4-[4-(1-tert-butylsulfonylcyclopropyl)-6-[(3S)-3-methylmorpholin-4-yl]pyrimidin-2-yl]phenyl]-3-(1-methylpyrazol-4-yl)urea]
[2]
  IC50: 3.15 nM

## CNC(=O)Nc1ccc(-c2nc(N3[C@@H](C)COC[C@@H]3C)cc(C3(S(=O)(=O)C4CC4)CC3)n2)cc1 [Example 92c, 1-[4-[4-(1-cyclopropylsulfonylcyclopropyl)-6-[(3S,5)-3,5-dimethylmorpholin-4-yl]pyrimidin-2-yl]phenyl]-3-methylurea]
[2]
  IC50: 7.8 nM

## C[C@H]1COCCN1c1cc(C2(S(=O)(=O)c3cccnc3C(=O)N(C)C)CC2)nc(-c2ccc(NC(=O)NC3CC3)cc2)n1 [Example 50a]
[2]
  IC50: 7.94 nM

## CC(C)(CO)NC(=O)Nc1ccc(-c2nc(N3CCOCC3)cc(C3(S(=O)(=O)C4CC4)CCCC3)n2)cc1 [Example 13m, 1-[4-[4-(1-cyclopropylsulfonylcyclopentyl)-6-morpholin-4-ylpyrimidin-2-yl]phenyl]-3-(1-hydroxy-2-methylpropan-2-yl)urea]
[2]
  IC50: 53.2 nM

## C[C@H]1COCCN1c1cc(C2(S(=O)(=O)c3ccccc3)CCC2)nc(-c2ccc(NC(=O)NCCCO)cc2)n1 [Example 64r, 1-[4-[4-[1-(benzenesulfonyl)cyclobutyl]-6-[(3S)-3-methylmorpholin-4-yl]pyrimidin-2-yl]phenyl]-3-(3-hydroxypropyl)urea]
[2]
  IC50: 4.18 nM

## C[C@H]1COCCN1c1cc(C2(S(=O)(=O)CCCO)CC2)nc(-c2ccc(NC(=S)NCC(F)F)cc2)n1 [Example 99j, 3-(2,2-difluoroethyl)-1-[4-[4-[1-(3-hydroxypropylsulfonyl)cyclopropyl]-6-[(3S)-3-methylmorpholin-4-yl]pyrimidin-2-yl]phenyl]thiourea]
[2]
  IC50: 12.4 nM

## CNC(=O)Nc1ccc(-c2nc(N3CCOC[C@@H]3C)cc(C3(S(=O)(=O)CCCO)CCC3)n2)cc1 [Example 43a, 1-[4-[4-[1-(3-hydroxypropylsulfonyl)cyclobu-tyl]-6-[(3S)-3-methylmorpholin-4-yl]pyrimidin-2-yl]phenyl]-3-methylurea]
[2]
  IC50: 4.79 nM

## C[C@H]1COCCN1c1cc(C2(S(=O)(=O)c3ccccc3)CCC2)nc(-c2ccc(NC(=O)Nc3cnn(C)c3)cc2)n1 [Example 36bv, 1-[4-[4-[1-(benzenesulfonyl)cyclobutyl]-6-[(3S)-3-methylmorpholin-4-yl]pyrimidin-2-yl]phenyl]-3-(1-methylpyrazol-4-yl)urea]
[2]
  IC50: 2.64 nM

## CN(C)CCNC(=O)Nc1ccc(-c2nc(N3CCOCC3)cc(C3(S(C)(=O)=O)CCC3)n2)cc1 [Example 12s, 3-(2-dimethylaminoethyl)-1-[4-[4-(1-methylsulfonylcyclobutyl)-6-morpholin-4-ylpyrimidin-2-yl]phenyl]urea]
[1]
  IC50: 134 nM
[2]
  IC50: 117 nM

## CNC(=O)Nc1ccc(-c2nc(N3CCOC[C@@H]3C)cc(C3(S(=O)(=O)c4ccccc4)CCC3)n2)cc1 [Example 36bu, 1-[4-[4-[1-(benzenesulfonyl)cyclobutyl]-6-[(3S)-3-methylmorpholin-4-yl]pyrimidin-2-yl]phenyl]-3-methylurea]
[2]
  IC50: 1.18 nM

## C[C@H]1COCCN1c1cc(C2(S(=O)(=O)CCCO)CCOCC2)nc(-c2ccc(NC(=O)Nc3nccs3)cc2)n1 [Example 36ci, 1-[4-[4-[4-(3-hydroxypropylsulfonyl)oxan-4-yl]-6-[(3S)-3-methylmorpholin-4-yl]pyrimidin-2-yl]phenyl]-3-(1,3-thiazol-2-yl)urea]
[2]
  IC50: 38.6 nM

## C[C@H]1COCCN1c1cc(C2(S(=O)(=O)c3ccccc3)CCC2)nc(-c2ccc(NC(=O)NCc3ncc[nH]3)cc2)n1 [Example 36du, 1-[4-[4-[1-(benzenesulfonyl)cyclobutyl]-6-[(3S)-3-methylmorpholin-4-yl]pyrimidin-2-yl]phenyl]-3-(1H-imidazol-2-ylmethyl)urea]
[2]
  IC50: 15.2 nM

## CCS(=O)(=O)C1(c2cc(N3CCOC[C@@H]3C)nc(-c3ccc(NC(=O)NCCCO)cc3)n2)CCC1 [Example 87b, 1-[4-[4-(1-ethylsulfonylcyclobutyl)-6-[(3S)-3-methylmorpholin-4-yl]pyrimidin-2-yl]phenyl]-3-(3-hydroxypropyl)urea]
[2]
  IC50: 17.7 nM

## Cc1csc(S(=O)(=O)C2(c3cc(N4CCOC[C@@H]4C)nc(-c4ccc(NC(=O)NCCC#N)cc4)n3)CC2)n1 [Example 36o, 3-(2-cyanoethyl)-1-[4-[4-[(3S)-3-methylmorpholin-4-yl]-6-[1-[(4-methyl-1,3-thiazol-2-yl)sulfonyl]cyclopropyl]pyrimidin-2-yl]phenyl]urea]
[2]
  IC50: 3.58 nM

## Cc1nc(C)c(S(=O)(=O)C2(c3cc(N4CCOC[C@@H]4C)nc(-c4ccc(NC(=O)NCC(F)F)cc4)n3)CC2)s1 [Example 78d, 3-(2,2-difluoroethyl)-1-[4-[4-[1-[(2,4-dimethyl-1,3-thiazol-5-yl)sulfonyl]cyclopropyl]-6-[(3S)-3-methylmorpholin-4-yl]pyrimidin-2-yl]phenyl]urea]
[2]
  IC50: 17.5 nM

## Cc1nn(C(F)F)c(C)c1S(=O)(=O)C1(c2cc(N3CCOC[C@@H]3C)nc(-c3ccc(NC(=O)NCCO)cc3)n2)CC1 [Example 75c, 1-[4-[4-[1-[1-(difluoromethyl)-3,5-dimethylpyrazol-4-yl]sulfonylcyclopropyl]-6-[(3S)-3-methylmorpholin-4-yl]pyrimidin-2-yl]phenyl]-3-(2-hydroxyethyl)urea]
[2]
  IC50: 33.9 nM

## CCNC(=O)Nc1ccc(-c2nc(N3CCOC[C@@H]3C)cc(C3(S(=O)(=O)c4cccc(F)c4)CC3)n2)cc1 [Example 53e, 1-ethyl-3-[4-[4-[1-(3-fluorophenyl)sulfonylcyclopro-pyl]-6-[(3S)-3-methylmorpholin-4-yl]pyrimidin-2-yl]phenyl]urea]
[2]
  IC50: 1.98 nM

## O=C(NCCCO)Nc1ccc(-c2nc(N3CCOCC3)cc(C3(S(=O)(=O)c4ccncc4)CC3)n2)cc1 [Example 36ax, 3-(3-hydroxypropyl)-1-[4-[4-morpholin-4-yl-6-(1-pyridin-4-ylsulfonylcyclopropyl)pyrimidin-2-yl]phenyl]urea]
[2]
  IC50: 21.1 nM

## C[C@@H](CO)NC(=O)Nc1ccc(-c2nc(N3CCOC[C@@H]3C)cc(C3(S(=O)(=O)c4ccccc4)CCC3)n2)cc1 [Example 64p, 1-[4-[4-[1-(benzenesulfonyl)cyclobutyl]-6-[(3S)-3-methylmorpholin-4-yl]pyrimidin-2-yl]phenyl]-3-[(2S)-1-hydroxypropan-2-yl]urea]
[2]
  IC50: 3.98 nM

## CCNC(=O)Nc1ccc(-c2nc(N3CCOC[C@@H]3C)cc(C3(S(=O)(=O)c4ccccc4Cl)CC3)n2)cc1 [Example 76b, 3-[4-[4-[1-(2-chlorophenyl)sulfonylcyclopropyl]-6-[(3S)-3-methylmorpholin-4-yl]pyrimidin-2-yl]phenyl]-1-ethylurea]
[2]
  IC50: 7.19 nM

## C[C@H]1COCCN1c1cc(C2(S(=O)(=O)CCCO)CCC2)nc(-c2ccc(NC(=S)NCCO)cc2)n1 [Example 99f, 3-(2-hydroxyethyl)-1-[4-[4-[1-(3-hydroxypropylsulfonyl)cyclobutyl]-6-[(3S)-3-methylmorpholin-4-yl]pyrimidin-2-yl]phenyl]thiourea]
[2]
  IC50: 5.89 nM

## C[C@H]1COCCN1c1cc(C2(S(=O)(=O)c3ccc(F)cc3F)CC2)nc(-c2ccc(NC(=O)NCC3(O)CC3)cc2)n1 [Example 57g, 1-[4-[4-[1-(2,4-difluorophenyl)sulfonylcyclopro-pyl]-6-[(3S)-3-methylmorpholin-4-yl]pyrimidin-2-yl]phenyl]-3-[(1-hydroxycyclopropyl)methyl]urea]
[2]
  IC50: 58.5 nM

## C[C@H]1COCCN1c1cc(C2(S(=O)(=O)c3ccccc3)CC2)nc(-c2ccc(NC(=O)NC3COC3)cc2)n1 [Example 36bp, 1-[4-[4-[1-(benzenesulfonyl)cyclopropyl]-6-[(3S)-3-methylmorpholin-4-yl]pyrimidin-2-yl]phenyl]-3-(oxetan-3-yl)urea]
[2]
  IC50: 1.98 nM

## CCNC(=O)Nc1ccc(-c2nc(N3CCOC[C@@H]3C)cc(C3(S(=O)(=O)c4cn(C)nc4C)CC3)n2)cc1 [Example 55e, 3-[4-[4-[1-(1,3-dimethylpyrazol-4-yl)sulfonylcyclopropyl]-6-[(3S)-3-methylmorpholin-4-yl]pyrimidin-2-yl]phenyl]-1-ethylurea]
[2]
  IC50: 20.4 nM

## C[C@H]1COCCN1c1cc(C2(S(=O)(=O)c3cc(F)cc(F)c3)CC2)nc(-c2ccc(NC(=O)Nc3ccc(C(F)(F)F)cc3)cc2)n1 [Example 19j, 1-[4-[4-[1-(3,5-difluorophenyl)sulfonylcyclopro-pyl]-6-[(3S)-3-methylmorpholin-4-yl]pyrimidin-2-yl]phenyl]-3-[4-(trifluoromethyl)phenyl]urea]
[2]
  IC50: 19.9 nM

## O=C(NCCO)Nc1ccc(-c2nc(N3CCOCC3)cc(C3(S(=O)(=O)C4CC4)CCC3)n2)cc1 [Example 13r, 1-[4-[4-(1-cyclopropylsulfonylcyclobutyl)-6-morpholin-4-ylpyrimidin-2-yl]phenyl]-3-(2-hydroxyethyl)urea]
[2]
  IC50: 1.98 nM

## O=C(NCCO)Nc1ccc(-c2nc(N3CCOCC3)cc(C3(S(=O)(=O)c4ccccc4)CC3)n2)cc1 [Example 36de, 1-[4-[4-[1-(benzenesulfonyl)cyclopropyl]-6-morpholin-4-ylpyrimidin-2-yl]phenyl]-3-(2-hydroxyethyl)urea]
[2]
  IC50: 3.89 nM
